Experiment: mn = molality of the nth substance listed, in mol/kg
Conditions: 101 kPa, Liquid

O=P([O-])([O-])O.[K+].[K+] [dipotassium hydrogen phosphate] + O
viscosity [mPa·s]
Conditions | 288.15 K | 298.15 K | 308.15 K | 318.15 K
m1 = 0.2 | 1.201 | 0.953 | 0.781 | 0.659
m1 = 0.4 | 1.329 | 1.057 | 0.867 | 0.73
m1 = 0.6 | 1.409 | 1.118 | 0.916 | 0.77
m1 = 0.8 | 1.534 | 1.217 | 0.997 | 0.833

Reference: the NIST ThermoML archive (doi:10.1021/je300673m)
